Columns and labels:
NF-kB pathways = test: NF-kB pathway activity (NFkB-response element luciferase reporter, IkB degradation); format: cell-based; conditions: reporter in response to TNFa; IkB degradation in response to E. coli LPS
[1] = target: T1, retinoic X receptor α (RXRα) (Homo sapiens, UniProt P19793); test: CV-1 Gal4 ligand binding domain luciferase reporter assay; format: cell-based; conditions: LNO2 1 μM; CV-1 cells
T1 construct: expressed in transfected cells; host or cells: CV-1 cells
T1 sequence (P19793 227-458 limits assumed): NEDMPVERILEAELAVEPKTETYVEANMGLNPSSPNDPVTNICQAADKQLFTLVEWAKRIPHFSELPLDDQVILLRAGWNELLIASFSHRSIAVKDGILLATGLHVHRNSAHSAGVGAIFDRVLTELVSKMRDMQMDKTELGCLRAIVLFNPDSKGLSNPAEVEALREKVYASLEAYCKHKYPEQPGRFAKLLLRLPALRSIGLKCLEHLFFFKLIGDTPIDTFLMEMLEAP
Procedure: (§1) Cell Transient Transfection Assay. CV-1 cells from ATCC (Manassas, Va.) were grown to ˜85% confluence in DMEM/F12 supplemented with 10% FBS, 1% penicillin-streptomycin. Then, cells were transiently co-transfected with a plasmid containing the luciferase gene under regulation by four Gal4 DNA binding elements (UASG×4 TK-Luciferase, a gift from Dr. Ronald M. Evans), in concert with plasmids containing the ligand binding domain for the different nuclear receptors fused to the Gal4 DNA binding domain. For assessing full-length PPAR receptors, CV-1 cells were transiently co-transfected with a plasmid containing the luciferase gene under the control of three tandem PPAR response elements (PPRE) (PPRE×3 TK-Luciferase) and hPPARγ, hPPARα or hPPARδ expression plasmids, respectively. In all cases, fluorescence protein (GFP) expression plasmid was co-transfected as the control for the transfection efficiency. Twenty-four hours after the transfection, cells were cultured for another 24 hours in Optium-MEM (Invitrogen, Carlsbad, Calif.). Then, cells were treated with different compounds as indicated in figures for 24 hours in Optium-MEM. Reporter luciferase assay kits from Promega (Madison, Wis.) were used to measure the luciferase activity according to the manufacturer's instructions with a luminometer (Victor II, Perkin-Elmer). Luciferase activity was normalized by GFP units. Each condition was performed at least in triplicates in each experiment.

[2] = target: T2, progesterone receptor (PR) (Homo sapiens, UniProt P06401); test: as above; format: cell-based; conditions: LNO2 1 μM; CV-1 cells
T2 construct: expressed in transfected cells; host or cells: CV-1 cells
T2 sequence (P06401 679-913 limits assumed): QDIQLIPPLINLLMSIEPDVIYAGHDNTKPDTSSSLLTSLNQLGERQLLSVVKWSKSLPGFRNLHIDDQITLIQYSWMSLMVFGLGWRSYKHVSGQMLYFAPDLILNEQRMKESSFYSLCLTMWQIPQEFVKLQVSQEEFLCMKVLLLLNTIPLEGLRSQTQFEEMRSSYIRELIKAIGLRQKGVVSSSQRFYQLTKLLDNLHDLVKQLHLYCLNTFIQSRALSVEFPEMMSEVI
Procedure: as §1

[3] = target: T3, mineralocorticoid receptor (MR) (Homo sapiens, UniProt P08235); test: as above; format: cell-based; conditions: LNO2 1 μM; CV-1 cells
T3 construct: expressed in transfected cells; host or cells: CV-1 cells
T3 sequence (P08235 726-964 limits assumed): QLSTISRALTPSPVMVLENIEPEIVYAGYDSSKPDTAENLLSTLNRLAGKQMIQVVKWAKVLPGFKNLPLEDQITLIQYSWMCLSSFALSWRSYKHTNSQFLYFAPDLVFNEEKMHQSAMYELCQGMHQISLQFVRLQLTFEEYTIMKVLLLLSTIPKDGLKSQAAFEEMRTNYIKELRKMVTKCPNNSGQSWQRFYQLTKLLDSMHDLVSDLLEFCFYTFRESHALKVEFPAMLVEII
Procedure: as §1

[4] = pH dependency of •NO formation from LNO2 (EPR, cPTIO reduction); conditions: 80 μM LNO2, buffers with different pHs
Procedure: Electron paramagnetic resonance—EPR measurements were performed at room temperature using a Bruker Elexsys E-500 spectrometer equipped with an ER049X microwave bridge and an AquaX liquid sample cell. The following instrument setting were used: modulation frequency, 100 kHz; modulation amplitude, 0.05 G; receiver gain, 60 dB; time constant, 1.28 ms; sweep time, 5.24 s; center field, 3510 G; sweep width, 100 G; power, 20 mW; scan parameter, 16 scans.
Due to limitations of the •NO-cPTIO reaction for quantitating yields of NO, oxymyoglobin was utilized to measure •NO release rates (24).

[5] = •NO release from LNO2 by oxymyoglobin oxidation
Procedure: Apparent •NO formation was calculated from extents of oxymyoglobin oxidation in the visible wavelength range (spectrum) and at 580 nm (kinetic mode). Initial oxymyoglobin oxidation was calculated using a UV probe Version 1.10 (ε580 14.4 mM^−1 cm^−1). Decomposition of the NO2 group was followed at 268 nm and the appearance of oxidized products at 320 nm.
To monitor the concomitant decomposition of the parent LNO2 molecule, its UV spectrum was first analyzed. […] The decrease in absorbance at 268 nm paralleled •NO release, as detected by both EPR and oxymyoglobin oxidation.
The formation of •NO was followed by EPR (measuring cPTI formation) in the presence of different concentrations of octyl-β-glucopyranoside (OG) and octyl-thio-β-glucopyranoside (OTG). The rate of •NO release was constant and not influenced by these detergents until the critical micellar concentration (CMC) for each was achieved, after which •NO formation was inhibited as the volume of the hydrophobic environment increased (FIG. 24A). Similar results were obtained when measuring •NO formation via conversion of oxymyoglobin to metmyoglobin. Apparent •NO release rates remained constant until OG concentration reached ˜2.8 mg/ml (CMC=2.77 mg/ml (11)). […] The inhibition of the NO2 group loss at 268 nm was paralleled by inhibition of the formation of oxidation products at 320 nm, similarly paralleling the detergent-induced inhibition of •NO release observed by EPR and oxymyoglobin-based detection.

[6] = LNO2 130 μM, oxymyoglobin 20 μM

10-nitro-9,12-octadecadienoic acid and 12-nitro-9,12-octadecadienoic acid [LNO2]
activity of NF-kB pathways (NF-kB pathways): inhibits activity of NF-kB pathways | RXRα receptor activation [1]: no impact | PR receptor activation [2]: no impact | MR receptor activation [3]: no impact | pH of maximal •NO release [4]: 7.4 | apparent rate constant for •NO release ([5]; 100 mM phosphate buffer, 100 μM DTPA, pH 7.4, oxymyoglobin to metmyoglobin): 9.67e-06 s⁻¹ | OG concentration up to which apparent •NO release rates remained constant [5, 6]: ~2.8 mg/mL | OTG concentration at which inhibition of LNO2-dependent •NO release occurred [5, 6]: ~7 mg/mL

Source: patent publication US9867795B2, “Nitrated lipids and methods of making and using thereof” (The UAB Research Foundation, priority 2004, dated 2018)
